Reference: patent publication US9604975B2, “Indolyl-pyridone derivatives having checkpoint kinase 1 inhibitory activity” (Vernalis (R&D) Ltd., priority 2009, dated 2017)

Key:
CHK1 = target: T1, CHK1 (Homo sapiens, UniProt O14757); test: CHK1 Enzyme Assay (phosphorylation of Chktide peptide, 33P-ATP filter assay); type: biochemical; settings: 12.5 nM His-CHK1, 0.01 mM ATP, 40 minutes at 30° C.; read-out: CHK1 Enzyme Activity (IC50 range)
T1 construct: His; purchased Invitrogen
T1 sequence (O14757 1-476): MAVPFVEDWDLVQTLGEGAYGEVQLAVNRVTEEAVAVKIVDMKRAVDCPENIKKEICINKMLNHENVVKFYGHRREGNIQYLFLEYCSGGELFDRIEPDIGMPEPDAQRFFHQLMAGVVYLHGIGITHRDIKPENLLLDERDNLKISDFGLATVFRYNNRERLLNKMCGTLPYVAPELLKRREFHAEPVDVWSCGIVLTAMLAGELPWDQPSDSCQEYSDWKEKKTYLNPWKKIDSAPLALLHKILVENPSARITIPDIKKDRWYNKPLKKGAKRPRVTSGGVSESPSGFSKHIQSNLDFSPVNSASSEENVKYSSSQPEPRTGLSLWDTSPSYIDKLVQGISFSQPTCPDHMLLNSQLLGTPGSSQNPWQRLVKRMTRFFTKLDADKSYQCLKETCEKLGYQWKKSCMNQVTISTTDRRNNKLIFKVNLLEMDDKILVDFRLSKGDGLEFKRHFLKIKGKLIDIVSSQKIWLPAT
Procedure, shortened: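 Filter-binding radiometric readout of 33P incorporation into Chktide (14.8 μM), after a 40 min, 30 °C reaction at pH 7.5 (50 mM Hepes-NaOH, 0.1 mg/mL BSA). The reaction contained 12.5 nM His-tagged CHK1, inhibitor and 0.01 mM cold ATP plus labelled ATP.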

HT29 cells = test: CHK1 Cellular Assay - Gemcitabine EC50 Assay; type: cell-based; settings: for EC50: HT29 cells, in the presence of gemcitabine at 10 nM, 72 hours, SRB staining, read-out: CHK1 Cellular Activity (EC50 range)
Procedure: The gemcitabine EC50 assay was developed as a rapid method for screening CHK1 inhibitors to determine their relative cell activity. This assay utilises a feature of the effect of CHK1 inhibitors on gemcitabine toxicity. In the absence of a CHK1 inhibitor, gemcitabine acts predominantly as an anti-metbolite and therefore induces very little cell death, even at high concentrations. This can be as high as 70-80% survival at concentrations in excess of 1 μM. However, in the presence of a CHK1 inhibitor, the mechanism of action of gemcitabine switches to a more classical cytotoxic mode of action. For example, the fraction of cells surviving can be reduced to around 30% and below. Concentrations of gemcitabine can be selected that in the absence of a CHK1 inhibitor, have no effect on cell survival but in the presence of a CHK1 inhibitor are highly cytotoxic. 10000 HT29 cells were plated per well of a 96 well plate and allowed to attach at 37° C. in a 5% CO2 humidified incubator for 18 hours. CHK1 inhibitors were then titrated in the presence of 10, 15 and 20 nM gemcitabine for 72 hours and the EC50 determined by staining with sulforhodamine B (SRB) and determining the absorbance at 540 nm.

IC50 (CHK1) [nM] | EC50 (HT29 cells) [nM] | Structure (SMILES) | survival (HT29 cells; gemcitabine in the absence of a CHK1 inhibitor, concentrations in excess of 1 μM)
< 100 | < 100 | O=C(Nc1c[nH]c(=O)c(-c2cc3cc(CN4CCC(F)CC4)ccc3[nH]2)c1)c1cnn(Cc2ccccc2)c1 [Example 49, 1-Benzyl-1H-pyrazole-4-carboxylic acid {3-[5-(4-fluoro-piperidin-1-ylmethyl)-1H-indol-2-yl]-6-oxo-1,6-dihydro-pyridin-3-yl}-amide] | –
< 100 | < 100 | CC1CCN(Cc2ccc3[nH]c(-c4cc(NC(=O)c5cnn(Cc6ccccc6)c5)c[nH]c4=O)cc3c2)CC1 [Example 78, 1-Benzyl-1H-pyrazole-4-carboxylic acid {5-[5-(4-methyl-piperidin-1-ylmethyl)-1H-indol-2-yl]-6-oxo-1,6-dihydro-pyridin-3-yl}-amide] | –
< 100 | – | C[C@@H](c1ccccc1)n1cc(C(=O)Nc2c[nH]c(=O)c(-c3cc4cc(CN5CCC(F)CC5)ccc4[nH]3)c2)cn1 [Example 164, 1-((S)-1-Phenyl-ethyl)-1H-pyrazole-4-carboxylic acid {5-[5-(4-fluoro-piperidin-1-ylmethyl)-1H-indol-2-yl]-6-oxo-1,6-dihydro-pyridin-3-yl}-amide] | –
< 100 | – | CC1CCN(Cc2ccc3[nH]c(-c4cc(NC(=O)c5cnn([C@@H](C)c6ccccc6)c5)c[nH]c4=O)cc3c2)CC1 [Example 165, 1-((S)-1-Phenyl-ethyl)-1H-pyrazole-4-carboxylic acid {5-[5-(4-methyl-piperidin-1-ylmethyl)-1H-indol-2-yl]-6-oxo-1,6-dihydro-pyridin-3-yl}-amide] | –
< 100 | – | CC1CCN(Cc2ccc3[nH]c(-c4cc(NC(=O)c5cnn([C@H](C)c6ccccc6)c5)c[nH]c4=O)cc3c2)CC1 [Example 167, 1-((R)-1-Phenyl-ethyl)-1H-pyrazole-4-carboxylic acid {5-[5-(4-methyl-piperidin-1-ylmethyl)-1H-indol-2-yl]-6-oxo-1,6-dihydro-pyridin-3-yl}-amide] | –
< 100 | – | C[C@H](c1ccccc1)n1cc(C(=O)Nc2c[nH]c(=O)c(-c3cc4cc(CN5CCCCC5)ccc4[nH]3)c2)cn1 [Example 168, 1-((R)-1-Phenyl-ethyl)-1H-pyrazole-4carboxylic acid [6-oxo-5-(5-piperidin-1-ylmethyl-1H-indol-2-yl)-1,6-dihydro-pyridin-3-yl]-amide] | –
< 100 | – | C[C@H](c1ccccc1)n1cc(C(=O)Nc2c[nH]c(=O)c(-c3cc4cc(CN5CCC(F)CC5)ccc4[nH]3)c2)cn1 [Example 169, 1-((R)-1-Phenyl-ethyl)-1H-pyrazole-4-carboxylic acid {5-[5-(4-fluoro-piperidin-1-ylmethyl)-1H-indol-2-yl]-6-oxo-1,6-dihydro-pyridin-3-yl}-amide] | –
< 100 | – | O=C(Nc1c[nH]c(=O)c(-c2cc3cc(CN4CC[C@@H](F)C4)ccc3[nH]2)c1)c1cnn(Cc2ccccc2)c1 [Example 174, 1-Benzyl-1H-pyrazole-4-carboxylic acid {5-[5-((R)-3-fluoro-pyrrolidin-1-ylmethyl)-1H-indol-2-yl]-6-oxo-1,6-dihydro-pyridin-3-yl}-amide] | –
< 100 | – | O=C(Nc1c[nH]c(=O)c(-c2cc3cc(CN4CC[C@H](F)C4)ccc3[nH]2)c1)c1cnn(Cc2ccccc2)c1 [Example 175, 1-Benzyl-1H-pyrazole-4-carboxylic acid {5-[5-((S)-3-fluoro-pyrrolidin-1-ylmethyl)-1H-indol-2-yl]-6-oxo-1,6-dihydro-pyridin-3-yl}-amide] | –

Continued, compound first:

Structure (SMILES) | IC50 (CHK1) [nM] | EC50 (HT29 cells) [nM] | survival (HT29 cells; gemcitabine in the absence of a CHK1 inhibitor, concentrations in excess of 1 μM)
O=C(Nc1c[nH]c(=O)c(-c2cc3ccccc3[nH]2)c1)c1cnn(Cc2ccccc2)c1 [Example 20, 1-Benzyl-1H-pyrazole-4-carboxylic acid [5-(1H-indol-2-yl)-6-oxo-1,6-dihydro-pyridin-3-yl]-amide] | < 100 | 100 to 500 | –
Cc1ccc(Cn2cc(C(=O)Nc3c[nH]c(=O)c(-c4cc5cc(CN6CCCCC6)ccc5[nH]4)c3)cn2)cc1 [Example 38, 1-(4-Methyl-benzyl)-1H-pyrazole-4-carboxylic acid [6-oxo-5-(5-piperidin-1-ylmethyl-1H-indol-2-yl)-1,6-dihydro-pyridin-3-yl]-amide] | < 100 | 100 to 500 | –
O=C(Nc1c[nH]c(=O)c(-c2cc3cc(CN4CCCCC4)ccc3[nH]2)c1)c1cnn(Cc2ccccc2)c1 [Example 52, 1-Benzyl-1H-pyrazole-4-carboxylic acid [6-oxo-5-(5-piperidin-1-ylmethyl-1H-indol-2-yl)-1,6-dihydro-pyridin-3-yl]-amide] | < 100 | < 100 | –
C[C@@H]1CN(Cc2ccc3[nH]c(-c4cc(NC(=O)c5cnn(Cc6ccccc6)c5)c[nH]c4=O)cc3c2)C[C@H](C)O1 [Example 71, 1-Benzyl-1H-pyrazole-4-carboxylic acid {5-[5-(cis-2,6-dimethyl-morpholin-4-ylmethyl)-1H-indol-2-yl]-6-oxo-1,6-dihydro-pyridin-3-yl}-amide] | < 100 | < 100 | –
CN(C)CCN(C)Cc1ccc2[nH]c(-c3cc(NC(=O)c4cnn(Cc5ccccc5)c4)c[nH]c3=O)cc2c1 [Example 170, 1-Benzyl-1H-pyrazole-4-carboxylic acid [5-(5-{1(2-dimethylamino-ethyl)-methyl-aminol-methyl}-1H-indol-2-yl)-6-oxo-1,6-dihydro-pyridin-3-yl]-amide] | < 100 | – | –
CN(C)[C@@H]1CCN(Cc2ccc3[nH]c(-c4cc(NC(=O)c5cnn(Cc6ccccc6)c5)c[nH]c4=O)cc3c2)C1 [Example 172, 1-Benzyl-1H-pyrazole-4-carboxylic acid {5-[5-((R)-3-dimethylamino-pyrrolidin-1-ylmethyl)-1H-indol-2-yl]-6-oxo-1,6-dihydro-pyridin-3-yl}-amide] | < 100 | – | –
CC(C)(COc1ccc2[nH]c(-c3cc(NC(=O)c4cnn(Cc5ccccc5)c4)c[nH]c3=O)cc2c1)CN1CCC(F)(F)C1 [Example 181, 1-Benzyl-1H-pyrazole-4-carboxylic acid (5-{5-[3-(3,3-difluoro-pyrrolidin-1-yl)-2,2-dimethyl-propoxy]-1H-indol-2-yl}-6-oxo-1,6-dihydro-pyridin-3-yl)-amide] | < 100 | – | –
CC(C)(COc1ccc2[nH]c(-c3cc(NC(=O)c4cnn(Cc5ccccc5)c4)c[nH]c3=O)cc2c1)CN1CC[C@@H](F)C1 [Example 182, 1-Benzyl-1H-pyrazole-4-carboxylic acid (5-{5-[3-((R)-3-fluoro-pyrrolidin-1-yl)-2,2-dimethyl-propoxy]-1H-indol-2-yl}-6-oxo-1,6-dihydro-pyridin-3-yl)-amide] | < 100 | – | –
CC(C)(COc1ccc2[nH]c(-c3cc(NC(=O)c4cnn(Cc5ccccc5)c4)c[nH]c3=O)cc2c1)CN1CC[C@H](F)C1 [Example 183, 1-Benzyl-1H-pyrazole-4-carboxylic acid (5-{5-[3-((S)-3-fluoro-pyrrolidin-1-yl)-2,2-dimethyl-propoxyl]-1H-indol-2-yl}-6-oxo-1,6-dihydro-pyridin-3-yl)-amide] | < 100 | – | –
CC(C)(COc1ccc2[nH]c(-c3cc(NC(=O)c4cnn(Cc5ccccc5)c4)c[nH]c3=O)cc2c1)CN1CCOCC1 [Example 184, 1-Benzyl-1H-pyrazole-4-carboxylic acid {5-[5-(2,2-dimethyl-3-morpholin-4-yl-propoxy)-1H-indol-2-yl]-6-oxo-1,6-dihydro-pyridin-3-yl}-amide] | < 100 | – | –
O=C(Nc1c[nH]c(=O)c(-c2cc3cc(OCC4(CN5CCCC5)CC4)ccc3[nH]2)c1)c1cnn(Cc2ccccc2)c1 [Example 187, 1-Benzyl-1H-pyrazole-4-carboxylic acid {6-oxo 5-[5-(1-pyrrolidin-1-ylmethyl-cyclopropylmethoxy)-1H-indol-2-yl]-1,6-dihydro-pyridin-3-yl}-amide] | < 100 | – | –
CN(C)CC1(COc2ccc3[nH]c(-c4cc(NC(=O)c5cnn(Cc6ccccc6)c5)c[nH]c4=O)cc3c2)CC1 [Example 188, 1-Benzyl-1H-pyrazole-4-carboxylic acid {5-[5-(1-dimethylaminomethyl-cyclopropylmethoxy)-1H-indol-2-yl]-6-oxo-1,6-dihydro-pyridin-3-yl}-amide] | < 100 | – | –
Nc1ccn([C@@H]2O[C@H](CO)[C@@H](O)C2(F)F)c(=O)n1 [gemcitabine, reference compound] | – | – | 70-80%
